Measured values as given in patent US12357598B2, “Treatment of neurodevelopmental disorders” (THE REGENTS OF THE UNIVERSITY OF CALIFORNIA, priority 2018, dated 2025).

How the values were obtained:
Assay type in all cases: in vivo, mouse
gut microbiota = experiment: 16S rRNA analysis of fecal samples after maternal glyphosate exposure; conditions: juvenile offspring (P28)
Method: 16S rRNA analysis and measurement of short-chain fluty acids of fecal samples. On P28, we collected fresh fecal samples from each mouse at around 10:00 in order to avoid circadian effects on the microbiome. The fecal samples were put into a sterilized screw cap microtube immediately after defecation, and these samples were stored at −80° C. until use. DNA extraction from mouse feces and 16S rRNA analysis of fecal samples were performed by MyMetagenome Co, Ltd. (Tokyo, Japan), as reported previously (20,21).

ddY mice [1] = experiment: NORT, offspring after maternal glyphosate exposure; conditions: juvenile offspring, maternal 0.095% glyphosate
Method: Novel Object Recognition Test (NORT): Mice were habituated for 10 minutes in the test box for 3 straight days. At 4th day, two objects (differing in shape and color but of similar size) were placed in the box 35.5 cm apart (symmetrically), and each animal was allowed to explore in the box for 5 minutes. The animals were considered to be exploring the object when the head of the animal was both facing and within 2.54 cm of the object or when any part of the body, except for the tail was touching the object. The time that mice spent exploring each object was recorded. After training, mice were immediately returned to their home cages, and the box and objects were cleaned with 75% ethanol, to avoid any possible instinctive odorant cues. Retention tests were carried out at one-day intervals, following the respective training. During the retention test, each mouse was reintroduced into their original test box, and one of the training objects was replaced by a novel object. The mice were then allowed to explore freely for 5 minutes, and the time spent exploring each object was recorded. Throughout the experiments, the objects were counter-balanced, in terms of their physical complexity and emotional neutrality. […]

ddY mice [2] = experiment: Locomotion, offspring after maternal glyphosate exposure; conditions: juvenile offspring, maternal 0.095% glyphosate vs water
Method: Locomotor Activity: Both horizontal and rearing activity were monitored by an infrared ray passive sensor system (SCANET-SV10, Melquest Ltd., Toyama, Japan), and activity was integrated every minute. Individual mice were placed in activity chambers and allowed 1 hour of free exploration as spontaneous activity.

sEH = experiment: Western blot of sEH in brain regions after maternal glyphosate exposure
Source text: Collection of blood and brain samples and oxylipin analysis. Water or 0.095% glyphosate was given to pregnant mice from E5 to P21, as described above. The male offspring were separated from their mothers at weaning (P21). At juvenile (P28) stage, mice were deeply anesthetized with isoflurane and plasma was collected. Subsequently, brains were removed from the skulls. For Western blot analysis, brain regions such as prefrontal cortex (PFC), hippocampus, and striatum, were dissected from brain on ice. The samples were stored at −80° C. before assay. For oxylipin analysis, plasma was collected after isoflurane anesthesia at juvenile (P28) stage. Subsequently, PFC, hippocampus, and striatum were dissected from brain on ice, and the samples were stored at −80° C. before assay. […]
Western blot analysis. […] 50 μg of protein were measured using the DC protein assay kit (Bio-Rad), and incubated for 5 min at 95° C., with an equal volume of 125 mM Tris-HCl, pH6.8, 20% glycerol, 0.1% bromophenol blue, 10% β-mercaptoethanol, 4% sodium dodecyl sulfate, and subjected to sodium dodecyl sulfate polyacrylamide gel electrophoresis, using 7.5% or AnyKD mini-gels (Mini-PROTEAN® TGX™ Precast Gel; Bio-Rad, CA, USA). […] After final three washes with TBST, bands were detected using enhanced chemiluminescence (ECL) prime Western Blotting Detection system (GE Healthcare Bioscience). […]

ddY mice [3] = experiment: Measurement of NMDAR-related amino acids in plasma and brain after maternal glyphosate exposure; conditions: juvenile offspring (P28)
Method: Measurement of amino acids. On P28, mice were deeply anesthetized with isoflurane and plasma was collected. Subsequently, prefrontal cortex (PFC), hippocampus and striatum were quickly dissected on ice from whole brain. The dissected tissues were weighed and stored at −80° C. until assayed. Levels of amino acids (glutamate, glutamine, glycine, L-serine, D-serine, GABA) were measured using high performance liquid chromatography system (Shimadzu Corporation, Kyoto, Japan), as reported previously (12,18,19).

`O=C(O)CNCP(=O)(O)O` [glyphosate] was tested, and the “composition of gut microbiota” value (gut microbiota; maternal glyphosate exposure) was “abnormal composition”, the “relative abundance of Clostridium sp. Clone-1, Enterorhabdus muris, Clostridium sp. Clone-46, and Butyricimonas virosa” value (gut microbiota; vs water-treated group) was “significantly higher” and the “relative abundance of Eubacterium plexicaudatum, Lachnospiraceae bacterium 538, and Clostridium tertium” value (gut microbiota; vs water-treated group) was “significantly lower”. The “novel object recognition test (NORT)” value (ddY mice [1]) was “cognitive deficits”, the locomotion (ddY mice [2]) was “not different” and the “protein levels of sEH in the PFC, hippocampus, and striatum” value (sEH; juvenile offspring (P28) after maternal glyphosate exposure vs water) was “significantly higher”. For the same compound, the “protein levels of sEH in the PFC and striatum of mothers” value (sEH; mothers treated with glyphosate vs water-treated mice) was “significantly higher”, the D-Serine level (ddY mice [3]; PFC) was 0.313 ± 0.010 nmol/mg tissue and the GABA level (ddY mice [3]; PFC) was 2.060 ± 0.058 nmol/mg tissue. For the same compound, the Glutamate level (ddY mice [3]; PFC) was 10.392 ± 0.377 nmol/mg tissue, the Glutamine level (ddY mice [3]; PFC) was 5.053 ± 0.243 nmol/mg tissue and the Glycine level (ddY mice [3]; PFC) was 0.705 ± 0.023 nmol/mg tissue. For the same compound, the L-Serine level (ddY mice [3]; PFC) was 0.622 ± 0.016 nmol/mg tissue, the D-Serine level (ddY mice [3]; hippocampus) was 0.259 ± 0.017 nmol/mg tissue and the GABA level (ddY mice [3]; hippocampus) was 2.469 ± 0.097 nmol/mg tissue. It also gave a Glutamate level (ddY mice [3]; hippocampus) of 9.350 ± 0.282 nmol/mg tissue, a Glutamine level (ddY mice [3]; hippocampus) of 4.765 ± 0.137 nmol/mg tissue and a Glycine level (ddY mice [3]; hippocampus) of 0.725 ± 0.030 nmol/mg tissue. The L-Serine level (ddY mice [3]; hippocampus) was 0.662 ± 0.037 nmol/mg tissue, the D-Serine level (ddY mice [3]; plasma) was 7.522 ± 0.578 nmol/mL and the Glutamate level (ddY mice [3]; plasma) was 38.003 ± 1.974 nmol/mL. For the same compound, the Glutamine level (ddY mice [3]; plasma) was 496.268 ± 15.748 nmol/mL, the Glycine level (ddY mice [3]; plasma) was 354.185 ± 9.806 nmol/mL and the L-Serine level (ddY mice [3]; plasma) was 144.824 ± 4.622 nmol/mL. For the same compound, the D-Serine level (ddY mice [3]; striatum) was 0.281 ± 0.010 nmol/mg tissue, the GABA level (ddY mice [3]; striatum) was 3.076 ± 0.151 nmol/mg tissue and the Glutamate level (ddY mice [3]; striatum) was 7.745 ± 0.141 nmol/mg tissue. The Glutamine level (ddY mice [3]; striatum) was 5.735 ± 0.319 nmol/mg tissue, the Glycine level (ddY mice [3]; striatum) was 0.755 ± 0.039 nmol/mg tissue and the L-Serine level (ddY mice [3]; striatum) was 0.715 ± 0.032 nmol/mg tissue.
